{
  "source": "patent US20040072146A1",
  "about": "“Mechanism of mitochondrial membrane permeabilization by HIV-1 Vpr, mimetics of Vpr and methods of screening active molecules having the ability to alter and/or prevent and/or mimic the interaction of Vpr with ANT” (priority 2000, published 2004)",
  "molecules": {"B1": {"name": "adenine nucleotide translocator (ANT), native purified protein, Q05962 2-298 (protein)", "chain": "GDQALSFLKDFLAGGIAAAVSKTAVAPIERVKLLLQVQHASKQISAEKQYKGIIDCVVRIPKEQGFLSFWRGNLANVIRYFPTQALNFAFKDKYKQIFLGGVDRHKQFWRYFAGNLASGGAAGATSLCFVYPLDFARTRLAADVGKGSSQREFNGLGDCLTKIFKSDGLKGLYQGFSVSVQGIIIYRAAYFGVYDTAKGMLPDPKNVHIIVSWMIAQSVTAVAGLVSYPFDTVRRRMMMQSGRKGADIMYTGTVDCWRKIAKDEGRKAFFKGAWSNVLRGMGGAFVLVLYDEIKKYV"}},
  "key": {"purified mitochondria [1]": {"test_system": "purified mitochondria", "assay": "Respirometry of purified mitochondria, respiratory control", "format": "biochemical", "settings": "for effect on respiratory control (RC): 1 μM peptide, 10 min", "procedure": "A. Oxygen consumption curves after addition of the indicated agents. Trace a: control mitochondria (no pretreatment). Trace b: mitochondria pretreated for 10 min with 1 μM Vpr52-96. Numbers along the traces are nmol of O2 consumed min^−1 mg^31 1 protein.\nB. Respiratory control (RC) values calculated by dividing oxygen consumption in the presence of CCCP by that measured with oligomycin (determined as in A), 10 min after addition of 1 μM of Vpr-derived peptides (mean values of 3 determinations)."}, "biotinylated Vpr52-96": {"biological_target": "biotinylated Vpr52-96 (Human immunodeficiency virus type 1 group M subtype B, UniProt P69726)", "format": "binding, HIV-1"}, "ANT": {"biological_target": "T1, ANT (Rattus norvegicus, UniProt Q05962)", "T1 construct": "from tissue", "T1 sequence (Q05962 whole entry, looked up)": "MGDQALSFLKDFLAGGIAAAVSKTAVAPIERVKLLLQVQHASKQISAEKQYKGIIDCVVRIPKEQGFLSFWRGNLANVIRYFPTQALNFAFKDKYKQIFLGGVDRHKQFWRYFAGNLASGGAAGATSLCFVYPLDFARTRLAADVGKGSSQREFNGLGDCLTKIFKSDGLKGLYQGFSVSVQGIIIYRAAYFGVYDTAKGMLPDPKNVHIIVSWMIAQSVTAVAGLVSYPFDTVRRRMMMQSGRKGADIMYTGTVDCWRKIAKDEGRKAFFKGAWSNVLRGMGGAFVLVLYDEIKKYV", "assay": "Single channel recordings in planar lipid bilayers", "format": "biochemical", "procedure": "FIG. 3 presents electrophysiological properties of Vpr52-96 and ANT in planar lipid bilayers. Current fluctuations of Vpr52-96 (80 nM, +150 mV), Vpr52-96(0.4 nM, +100 mV), ANT (1 nM, +110 mV) and Vpr52-96+ANT (0.4:1 nM, +115 mV) and associated histograms (right) of conductance levels are shown.\nCurrent fluctuations of Vpr52-96 (80 nM, +150 mV), Vpr52-96 (0.4 nM, +100 mV), ANT (1 nM, +110 mV) and Vpr52-96+ANT (0.4:1 nM, 115 mV) after incorporation into synthetic membranes. Single channel recordings were performed using the “Tip-Dip” technique. The recordings shown are representative for at least three independent determinations.\nB. Statistical analysis of conductances obtained in A. Results were expressed as current distributions at different voltages. Conductances (γ; in picosiemens, pS) are calculated by division of current by voltage."}, "purified mitochondria [2]": {"test_system": "purified mitochondria", "assay": "FITC-Vpr52-96 binding to purified mitochondria", "settings": "pre-incubation of the organelles", "procedure": "Mitochondria were left unstained (insert in Co.) or exposed to the ΔΨm-insensitive mitochondrial dye MitoTracker® Green (75 nM), alone (MTG) or with 0.5 μM of FITC-Vpr52-96; green fluorescence), in combination with the ΔΨm-sensitive mitochondrial dye MitoTracker® Red (CMXRos; red Fluorescence) followed by cytofluorometric two-color analysis. Numbers indicate the percentage of mitochondria in each quadrant.\nMitochondria were incubated with the indicated inhibitors, and then exposed for 30 min at RT with 5 μM biotinylated Vpr52-96. Mitochondria were lysed either after incubation with biotinylated Vpr52-96 (upper panel) or lysed before (lower panel) with Tris/HCl as described in materials and methods. Biotinylated Vpr52-96 complexed with its mitochondrial ligands was retained on avidin-agarose and subjected to immunoblot detection of ANT."}, "isolated mitochondria": {"test_system": "isolated mitochondria", "assay": "Electron microscopy of isolated mitochondria (matrix swelling)", "format": "biochemical", "settings": "pre-incubation of mitochondria", "excerpt": "C. Ultrastructural effects of Vpr on isolated mitochondria."}, "purified mitochondria [3]": {"test_system": "purified mitochondria", "assay": "Inner versus outer mitochondrial membrane permeabilization (NADH oxidation, cytochrome c oxidation)", "format": "biochemical", "settings": "for prevention of Vpr-mediated inner MMP to NADH: preincubation 10 min, Bcl-2 0.8 μM, BA 10 μM", "procedure": "A. Respirometry performed after addition of NADH and Vpr52-96 (1 μM). Numbers along the traces are nmol of O2 consumed min^−1 mg^−1 protein.\nB. Kinetics of Vpr52-96 induced inner membrane permeabilization to NADH and outer membrane permeabilization to reduced cytochrome c. Oxygen consumption was determined in the presence of 2 mM NADH (full squares) as in A (traces C-D) and cytochrome c (15 μM) oxidation (open circles) was spectrofluorometrically measured, as described Rustin et al., 1994). The 100% value of cytochrome c oxidation was determined by addition of 2.5 mM laurylmaltoside.\nOxygen consumption of purified mitochondria was measured as in FIG. 5 after addition of succinate+CCCP or NADH, as indicated."}, "purified mitochondria [4]": {"test_system": "purified mitochondria", "assay": "ΔΨm dissipation in purified mitochondria (JC-1 flow cytometry)", "format": "biochemical", "settings": "5 μM CsA, 50 μM BA, 0.8 μM Bcl-2, 2 μM PA10", "procedure": "Numbers indicate the percentage of JC-1^high and JC-1^low mitochondria among ˜10^4 events.\nE. Quantitation of the frequency of JC-1^low mitochondria (X±SD, n=5) after incubation with different Vpr-derived peptides."}, "ANT-proteoliposomes": {"biological_target": "T2, ANT-proteoliposomes (Rattus norvegicus, UniProt Q05962)", "T2 construct": "ANT is purified from rat heart and reconstituted in liposomes; from tissue; host or cells: rat heart (ANT)", "T2 sequence (Q05962 1-298)": "T1 sequence (Q05962 whole entry, looked up)", "assay": "FITC-labeled Vpr52-96 binding onto ANT-liposomes and plain liposomes", "settings": "BA 50 μM; Bcl-2 800 nM", "procedure": "A. Dose-response curve of FITC-labeled Vpr52-96 binding onto ANT-liposomes and plain liposomes.\nB. Binding of FITC-Vpr52-96 (2 μM) to plain liposomes, ANT-proteoliposomes, in the presence or absence of BA (50 μM)."}, "COS cells": {"test_system": "COS cells", "assay": "ΔΨm dissipation in intact microinjected cells (JC-1)", "format": "cell-based", "excerpt": "A. Vpr52-96-induced ΔΨm dissipation induced in intact cells."}, "biotin-Vpr52-96 (HIV-1)": {"biological_target": "biotin-Vpr52-96 (HIV-1) (UniProt P12520)", "assay": "SPR, Langmuir isotherm, peptide on biotinylated Vpr52-96"}, "[5]": {"biological_target": "T3, adenine nucleotide translocator (ANT), native purified protein (rat), Q05962", "T3 chain": "B1 chain", "assay": "cell-based or functional assay"}, "[6]": {"biological_target": "T4, adenine nucleotide translocator (ANT), native purified protein (rat, UniProt Q05962 2-298)", "T4 construct": "mature; also called adenine nucleotide translocase; ADP/ATP carrier", "T4 sequence": "B1 chain", "assay": "not stated (summary paragraph)"}, "[7]": {"biological_target": "biotin-Vpr52-96 (HIV-1), P12520", "assay": "SPR, immobilised biotin-Vpr52-96, detergent-solubilized ANT as analyte"}},
  "note": "Entries after “also recorded” stand apart in the source; their conditions may differ. Where a SMILES comes first, the peptide text is derived from it.",
  "data": [
    {"molecule": "HFRIGCRHSRIG [Vpr71-82]", "values": [
      {"measurement": "effect on respiratory control (RC)", "setting": "purified mitochondria [1]", "result": "also reduced the RC values"}
    ]},
    {"molecule": "C[C@H](NC(=O)[C@H](Cc1ccccc1)NC(=O)[C@H](Cc1ccc(O)cc1)NC(=O)[C@H](CCCNC(=N)N)NC(=O)[C@H](Cc1c[nH]c2ccccc12)NC(=O)[C@H](Cc1ccccc1)NC(=O)[C@H](CCC(N)=O)NC(=O)[C@@H](NC(=O)[C@H](CCCNC(=N)N)NC(=O)[C@H](CCCCN)NC(=O)[C@@H](N)CC(=O)O)[C@@H](C)O)C(=O)NCC(=O)N[C@@H](CC(N)=O)C(=O)O", "note": "[ANT104-116] (H-DKRTQFWRYFAGN-OH; N-terminus and C-terminus assumed)", "values": [
      {"measurement": "Kd", "setting": "biotinylated Vpr52-96; read-out: calculated KD of binding of ANT104-116 to biotinylated Vpr52-96, Langmuir isotherm", "result": 35, "unit": "µM"}
    ]},
    {"molecule": "Bcl-2: recombinant human Bcl-2 protein", "values": [
      {"measurement": "effect on formation of Vpr52-96 induced channels in ANT-containing lipid bilayers", "setting": "ANT; Vpr52-96+ANT+Bcl-2 0.4:1:1 nM", "result": "abolished the formation of Vpr52-96 induced channels in ANT-containing lipid bilayers"},
      {"measurement": "effect on binding of Vpr52-96 to purified mitochondria", "setting": "purified mitochondria [2]", "result": "failed to impair the binding of Vpr52-96 to purified mitochondria"},
      {"measurement": "inhibition of Vpr-induced matrix swelling", "setting": "isolated mitochondria", "result": "inhibited; also recorded: strongly reduced"},
      {"measurement": "prevention of Vpr-mediated inner MMP to NADH", "setting": "purified mitochondria [3]", "result": "prevented the Vpr-mediated inner MMP to NADH"},
      {"measurement": "inhibition of Vpr-induced ΔΨm loss in purified mitochondria", "setting": "purified mitochondria [4]", "result": "inhibited; also recorded: strongly reduced"},
      {"measurement": "binding to Vpr52-96", "setting": "biotinylated Vpr52-96", "result": "did not bind Vpr52-96"},
      {"measurement": "effect on Vpr52-96 binding to ANT liposomes (membrane-associated ANT)", "setting": "ANT-proteoliposomes", "result": "reduced Vpr52-96 binding"},
      {"measurement": "prevention of Vpr effects on intact cells", "setting": "COS cells; microinjected, Bcl-2 10 μM, PA10 2 μM", "result": "prevented"}
    ]},
    {"molecule": "ANT-2-derived peptide ANT104-116", "values": [
      {"measurement": "Kd", "setting": "biotin-Vpr52-96 (HIV-1)", "result": 35, "unit": "µM"}
    ]},
    {"molecule": "Bax: pro-apoptotic Bcl-2 family protein added to Vpr52-96-ANT channels", "values": [
      {"measurement": "mean conductance of Vpr52-96-ANT channels with Bax", "setting": "ANT; Vpr52-96+ANT+Bax 0.4:1:0.3 nM, +75 mV", "result": "245±2", "unit": "S"}
    ]},
    {"molecule": "CO[C@H](C/C=C\\C=C\\CC/C=C/C[C@H](C)/C=C/C(=C\\C(=O)O)CC(=O)O)/C(C)=C\\C=C(/C)C(=O)O", "note": "[bongkrekic acid, reference compound]", "values": [
      {"measurement": "effect on binding of Vpr52-96 to purified mitochondria", "setting": "purified mitochondria [2]", "result": "partially reduced"},
      {"measurement": "inhibition of Vpr-induced matrix swelling", "setting": "isolated mitochondria", "result": "inhibited"},
      {"measurement": "prevention of Vpr-mediated inner MMP to NADH", "setting": "purified mitochondria [3]", "result": "prevented the Vpr-mediated inner MMP to NADH"},
      {"measurement": "inhibition of Vpr-induced ΔΨm loss in purified mitochondria", "setting": "purified mitochondria [4]", "result": "inhibited"},
      {"measurement": "effect on Vpr52-96 binding to ANT liposomes (membrane-associated ANT)", "setting": "ANT-proteoliposomes", "result": "inhibited"}
    ]},
    {"molecule": "C=C(C)[C@H]1Cc2c(ccc3c2O[C@@H]2COc4cc(OC)c(OC)cc4[C@@H]2C3=O)O1", "note": "[rotenone, reference compound]", "values": [
      {"measurement": "sensitivity of Vpr-stimulated, NADH-dependent O2 consumption", "setting": "purified mitochondria [3]", "result": "fully sensitive to rotenone"}
    ]},
    {"molecule": "Vpr: proapoptotic 96 amino acid HIV-1 regulatory protein, full length Vpr1-96 (DTWAGVEAIIRILQQLLFIHFRIGCRHSRIGVTRQRRARNGASRS)", "values": [
      {"measurement": "effect on respiratory control (RC)", "setting": "purified mitochondria [1]", "result": "also reduced the RC values"},
      {"measurement": "oxidation rate accompanying loss of RC", "setting": "purified mitochondria [1]; short-term incubation", "result": "not associated with a significant decrease of the oxidation rate"},
      {"measurement": "ΔΨm loss in intact cells", "setting": "COS cells; extracellular addition", "result": "induced a rapid ΔΨm loss, before nuclear condensation occurred"}
    ]},
    {"molecule": "DTWAGVEAIIRILQQLLFIHFRIGCRHSRIGVTRQRRARNGASRS (modifications not checked)", "note": "[Vpr52-96, P12520 52-96]", "values": [
      {"measurement": "conductance of Vpr52-96-ANT channels in the presence of Bax", "setting": "[5]", "result": 245, "unit": "pS"},
      {"measurement": "conductance of channels formed by ANT and Vpr52-96 in planar lipid bilayers", "setting": "[5]", "result": 190, "unit": "pS"}
    ]},
    {"molecule": "DTWAGVEAIIRILQQLLFIHFRIGCRHSRIGVTRQRRARNGASRS (other, also called viral protein R)", "note": "[HIV-1 Vpr]", "values": [
      {"measurement": "Kd", "setting": "[6]", "result": 0.001, "unit": "µM"}
    ]},
    {"molecule": "B1", "values": [
      {"measurement": "Kd", "setting": "[7]", "result": 0.0097, "unit": "µM"}
    ]}
  ]
}
